Measurements as given in ChEMBL document CHEMBL1149353, “Exploring alternative Zn-binding groups in the design of HDAC inhibitors: squaric acid, N-hydroxyurea, and oxazoline analogues of SAHA” (Bioorg Med Chem Lett, 2006).
The source made the active and inactive calls. The rule behind the calls is not given here.

Target: Histone deacetylase (Homo sapiens) (UniProt Q13547+O15379+Q9UBN7+Q92769+Q9UQL6+Q8WUI4+Q9BY41+Q96DB2+P56524+Q9UKV0+Q969S8)
Experiment: Inhibition of HDAC at <1 uM
Type: protein assay

Activity, inactive:
O=C(CCCCNc1c(O)c(=O)c1=O)Nc1ccccc1
O=C(CCCCCC/N=c1/c(S)c(O)c1=O)Nc1ccccc1
CSc1c(NCCCCC(=O)Nc2ccccc2)c(=O)c1=O
O=C(CCCCC/N=c1/c(S)c(O)c1=O)Nc1ccccc1
O=C(CCCC/N=c1/c(S)c(O)c1=O)Nc1ccccc1
CN(O)c1c(SCCCCC(=O)Nc2ccccc2)c(=O)c1=O
O=C(CCCCCCNc1c(O)c(=O)c1=O)Nc1ccccc1
O=C(CCCCCCC1=N[C@@H](COCc2ccccc2)CO1)Nc1ccccc1
O=C(CCCCCCC1=N[C@@H](CO)CO1)Nc1ccccc1
O=C(CCCCCNc1c(O)c(=O)c1=O)Nc1ccccc1
CSc1c(NCCCCCC(=O)Nc2ccccc2)c(=O)c1=O
COc1ccc(COC(CCCCCNC(=O)NO)C(=O)Nc2ccccc2)cc1 (stereo not drawn)
CSc1c(NCCCCCCC(=O)Nc2ccccc2)c(=O)c1=O
